# pIC50: −log10 of the molar value. Starred links: 1 amine or outer side, 2 acyl side, 3 side chain; linkers in the order of their positions; H or OH if unused. Positions of bridges follow the written chain, without caps; N, C: chain ends. Non-standard residues stand in square brackets, D forms with d. Residues, ends and D or L forms follow the SMILES beside them. ξ: configuration not given here. X1 = C=C[C@H]1C[C@@]1(N[*:1])C(=O)[*:2]; X4 = C[C@H]1C[C@@]1(N[*:1])C(=O)[*:2]; Bta = N[C@@H](Cc1csc2ccccc12)C(=O)O; Hyp = O=C(O)[C@@H]1C[C@@H](O)CN1; Aic = NC1(C(=O)O)Cc2ccccc2C1; NMeNle = CCCC[C@H](NC)C(=O)O; NMeA = CN[C@@H](C)C(=O)O; Ac5c = NC1(C(=O)O)CCCC1; Dab = NCC[C@H](N)C(=O)O; Dap = NC[C@H](N)C(=O)O; Ac3c = NC1(C(=O)O)CC1; Aib = CC(C)(N)C(=O)O; ξC = NC(CS)C(=O)O
# Molecular target: T1, PD-1-Ig binding to PD-L1-TVMV-His (PD-L1-His) (Homo sapiens, UniProt Q9NZQ7)
# T1 construct: hPDL1(19-239)-TVMV-His; TVMV protease cleavage site (C); made in house; host or cells: HEK293T cells
# T1 sequence (Q9NZQ7 with tags, fused parts or gaps): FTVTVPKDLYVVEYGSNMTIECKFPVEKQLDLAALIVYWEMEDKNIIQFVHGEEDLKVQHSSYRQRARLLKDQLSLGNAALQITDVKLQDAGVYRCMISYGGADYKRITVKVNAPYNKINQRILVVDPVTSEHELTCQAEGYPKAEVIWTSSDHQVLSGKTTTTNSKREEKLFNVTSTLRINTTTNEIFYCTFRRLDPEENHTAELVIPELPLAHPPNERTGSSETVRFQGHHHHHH
# Experiment: PD-1/PD-L1 Homogenous Time-Resolved Fluorescence (HTRF) binding assay
# Conditions: PD-1-Ig/PD-L1-His binding; numeric values
# Description: The ability of the macrocyclic peptides of the present disclosure to bind to PD-L1 was investigated using a PD-1/PD-L1 Homogenous Time-Resolved Fluorescence (HTRF) binding assay.
# Homogenous Time-Resolved Fluorescence (HTRF) Assays of Binding of Soluble PD-1 to Soluble PD-L1. Soluble PD-1 and soluble PD-L1 refers to proteins with carboxyl-end truncations that remove the transmembrane-spanning regions and are fused to heterologous sequences, specifically the Fc portion of the human immunoglobuling G sequence (Ig) or the hexahistidine epitope tag (His). All binding studies were performed in an HTRF assay buffer consisting of dPBS supplemented with 0.1% (w/v) bovine serum albumin and 0.05% (v/v) Tween-20. For the PD-1-Ig/PD-L1-His binding assay, inhibitors were pre-incubated with PD-L1-His (10 nM final) for 15 m in 4 μl of assay buffer, followed by addition of PD-1-Ig (20 nM final) in 1 μl of assay buffer and further incubation for 15 m. PD-L1 fusion proteins from either human, cynomologous macaques, mouse, or other species were used. HTRF detection was achieved using europium crypate-labeled anti-Ig monoclonal antibody (1 nM final) and allophycocyanin (APC) labeled anti-His monoclonal antibody (20 nM final). Antibodies were diluted in HTRF detection buffer and 5 μl was dispensed on top of binding reaction. The reaction was allowed to equilibrate for 30 minutes and signal (665 nm/620 nm ratio) was obtained using an EnVision fluorometer. Additional binding assays were established between PD-1-Ig/PD-L2-His (20 and 5 nM, respectively), CD80-His/PD-L1-Ig (100 and 10 nM, respectively) and CD80-His/CTLA4-Ig (10 and 5 nM, respectively). Binding/competition studies between biotinylated Compound No. 71 and human PD-L1-His were performed as follows. Macrocyclic peptide inhibitors were pre-incubated with PD-L1-His (10 nM final) for 60 minutes in 4 μl of assay buffer followed by addition of biotinylated Compound No. 71 (0.5 nM final) in 1 μl of assay buffer. Binding was allowed to equilibrate for 30 minutes followed by addition of europium crypated labeled Streptavidin (2.5 pM final) and APC-labeled anti-His (20 nM final) in 5 μl of HTRF buffer. The reaction was allowed to equilibrate for 30 m and signal (665 nm/620 nm ratio) was obtained using an EnVision fluorometer.
# Recombinant Proteins. Carboxyl-truncated human PD-1 (amino acids 25-167) with a C-terminal human Ig epitope tag [hPD-1 (25-167)-3S-IG] and human PD-L1 (amino acids 18-239) with a C-terminal His epitope tag [hPD-L1(19-239)-tobacco vein mottling virus protease cleavage site (TVMV)-His] were expressed in HEK293T cells and purified sequentially by recombinant Protein A affinity chromatography and size exclusion chromatography. Human PD-L2-His (Sino Biologicals), CD80-His (Sino Biologicals), CTLA4-Ig (RnD Systems) were all obtained through commercial sources.
# Ranges are as follows: A=0.10-10 μM; B=0.01-0.099 μM; C=0.004-0.0099 μM.
row,SMILES,pIC50
1,CCCC[C@H]1C(=O)N(C)[C@@H](CCCC)C(=O)N[C@@H](CC(C)C)C(=O)N[C@H](C(=O)NCC(N)=O)CSCC(=O)N[C@@H](Cc2ccc(O)cc2)C(=O)N(C)[C@@H](C)C(=O)N[C@@H](CC(N)=O)C(=O)N2CCC[C@H]2C(=O)NC(C)(C)C(=O)N[C@@H](CC(C)C)C(=O)N2C[C@H](O)C[C@H]2C(=O)N[C@@H](Cc2c[nH]c3ccccc23)C(=O)N[C@@H](CCN)C(=O)N[C@@H](Cc2c[nH]c3ccccc23)C(=O)N1C [Example 9011] ({CH2CO}-Y[NMeA]NP[Aib]L[Hyp]W[Dab]W[NMeNle][NMeNle]LCG-NH2; thioether N-14),7.70
2,C=C[C@H]1C[C@]12NC(=O)[C@H](CC(N)=O)NC(=O)[C@H](C)N(C)C(=O)[C@H](Cc1ccc(O)cc1)NC(=O)CSCC(C(=O)NCC(N)=O)NC(=O)[C@H](CCCNC(=N)N)NC(=O)[C@H](CCCC)N(C)C(=O)[C@H](CCCC)N(C)C(=O)[C@H](Cc1csc3ccccc13)NC(=O)[C@H](CO)NC(=O)[C@H](Cc1c[nH]c3ccccc13)NC(=O)[C@@H]1C[C@@H](O)CN1C(=O)[C@H](CC(C)C)NC(=O)[C@H](Cc1cnc[nH]1)NC2=O (stereo partly drawn) [Example 10002] ({CH2CO}-Y[NMeA]N[X1]HL[Hyp]WS[Bta][NMeNle][NMeNle]R[ξC]G-NH2; thioether N-14),6.70

# Same assay, conditions: PD-1-Ig/PD-L1-His binding; values given as range classes
row,SMILES,pIC50
1,CCCC[C@H]1C(=O)N(C)[C@@H](CCCC)C(=O)N[C@@H](CC(C)C)C(=O)N[C@H](C(=O)NCC(N)=O)CSCC(=O)N[C@@H](Cc2ccc(O)cc2)C(=O)N(C)[C@@H](C)C(=O)N[C@@H](CC(N)=O)C(=O)N2CCC[C@H]2C(=O)NC2(CC2)C(=O)N[C@@H](CC(C)C)C(=O)N2C[C@H](O)C[C@H]2C(=O)N[C@@H](Cc2c[nH]c3ccccc23)C(=O)N[C@@H](CCN)C(=O)N[C@@H](Cc2c[nH]c3ccccc23)C(=O)N1C [Example 9012] ({CH2CO}-Y[NMeA]NP[Ac3c]L[Hyp]W[Dab]W[NMeNle][NMeNle]LCG-NH2; thioether N-14),7.00 to 8.00
2,CCCC[C@H]1C(=O)N(C)[C@@H](CCCC)C(=O)N[C@@H](CC(C)C)C(=O)N[C@H](C(=O)NCC(N)=O)CSCC(=O)N[C@@H](Cc2ccc(O)cc2)C(=O)N(C)[C@@H](C)C(=O)NC(C)(C)C(=O)N2CCC[C@H]2C(=O)N[C@@H](CN)C(=O)N[C@@H](CC(C)C)C(=O)N2C[C@H](O)C[C@H]2C(=O)N[C@@H](Cc2c[nH]c3ccccc23)C(=O)N[C@@H](CCN)C(=O)N[C@@H](Cc2c[nH]c3ccccc23)C(=O)N1C [Example 9013] ({CH2CO}-Y[NMeA][Aib]P[Dap]L[Hyp]W[Dab]W[NMeNle][NMeNle]LCG-NH2; thioether N-14),5.00 to 7.00
3,CCCC[C@H]1C(=O)N(C)[C@@H](CCCC)C(=O)N[C@@H](CC(C)C)C(=O)N[C@H](C(=O)NCC(N)=O)CSCC(=O)N[C@@H](Cc2ccc(O)cc2)C(=O)N(C)[C@@H](C)C(=O)NC2(CC2)C(=O)N2CCC[C@H]2C(=O)N[C@@H](CN)C(=O)N[C@@H](CC(C)C)C(=O)N2C[C@H](O)C[C@H]2C(=O)N[C@@H](Cc2c[nH]c3ccccc23)C(=O)N[C@@H](CCN)C(=O)N[C@@H](Cc2c[nH]c3ccccc23)C(=O)N1C [Example 9014] ({CH2CO}-Y[NMeA][Ac3c]P[Dap]L[Hyp]W[Dab]W[NMeNle][NMeNle]LCG-NH2; thioether N-14),5.00 to 7.00
4,CCCC[C@H]1C(=O)N(C)[C@@H](CCCC)C(=O)NC2(CCCC2)C(=O)N[C@H](C(=O)NCC(N)=O)CSCC(=O)N[C@@H](Cc2ccc(O)cc2)C(=O)N(C)[C@@H](C)C(=O)N[C@@H](CC(N)=O)C(=O)N2CCC[C@H]2C(=O)N[C@@H](CN)C(=O)N[C@@H](CC(C)C)C(=O)N2C[C@H](O)C[C@H]2C(=O)N[C@@H](Cc2c[nH]c3ccccc23)C(=O)N[C@@H](CCN)C(=O)N[C@@H](Cc2c[nH]c3ccccc23)C(=O)N1C [Example 9015] ({CH2CO}-Y[NMeA]NP[Dap]L[Hyp]W[Dab]W[NMeNle][NMeNle][Ac5c]CG-NH2; thioether N-14),7.00 to 8.00
5,CCCC[C@H]1C(=O)N(C)[C@@H](CCCC)C(=O)NC2(Cc3ccccc3C2)C(=O)N[C@H](C(=O)NCC(N)=O)CSCC(=O)N[C@@H](Cc2ccc(O)cc2)C(=O)N(C)[C@@H](C)C(=O)N[C@@H](CC(N)=O)C(=O)N2CCC[C@H]2C(=O)N[C@@H](CN)C(=O)N[C@@H](CC(C)C)C(=O)N2C[C@H](O)C[C@H]2C(=O)N[C@@H](Cc2c[nH]c3ccccc23)C(=O)N[C@@H](CCN)C(=O)N[C@@H](Cc2c[nH]c3ccccc23)C(=O)N1C [Example 9016] ({CH2CO}-Y[NMeA]NP[Dap]L[Hyp]W[Dab]W[NMeNle][NMeNle][Aic]CG-NH2; thioether N-14),7.00 to 8.00
6,CCCC[C@H]1C(=O)N(C)[C@@H](CCCC)C(=O)N[C@@H](CC(C)C)C(=O)N[C@H](C(=O)NCC(N)=O)CSCC(=O)N[C@@H](Cc2ccc(O)cc2)C(=O)N(C)[C@@H](C)C(=O)N[C@@H](CC(N)=O)C(=O)N2CCC[C@H]2C(=O)NC2(CCCC2)C(=O)N[C@@H](CC(C)C)C(=O)N2C[C@H](O)C[C@H]2C(=O)N[C@@H](Cc2c[nH]c3ccccc23)C(=O)N[C@@H](CCN)C(=O)N[C@@H](Cc2c[nH]c3ccccc23)C(=O)N1C [Example 9017] ({CH2CO}-Y[NMeA]NP[Ac5c]L[Hyp]W[Dab]W[NMeNle][NMeNle]LCG-NH2; thioether N-14),7.00 to 8.00
7,CCCC[C@H]1C(=O)N(C)[C@@H](CCCC)C(=O)N[C@@H](CC(C)C)C(=O)N[C@H](C(=O)NCC(N)=O)CSCC(=O)N[C@@H](Cc2ccc(O)cc2)C(=O)N(C)[C@@H](C)C(=O)N[C@@H](CC(N)=O)C(=O)N2CCC[C@H]2C(=O)NC2(Cc3ccccc3C2)C(=O)N[C@@H](CC(C)C)C(=O)N2C[C@H](O)C[C@H]2C(=O)N[C@@H](Cc2c[nH]c3ccccc23)C(=O)N[C@@H](CCN)C(=O)N[C@@H](Cc2c[nH]c3ccccc23)C(=O)N1C [Example 9018] ({CH2CO}-Y[NMeA]NP[Aic]L[Hyp]W[Dab]W[NMeNle][NMeNle]LCG-NH2; thioether N-14),7.00 to 8.00
8,C=C[C@H]1C[C@]12NC(=O)[C@H](CC(N)=O)NC(=O)[C@H](C)N(C)C(=O)[C@H](Cc1ccc(O)cc1)NC(=O)CSCC(C(=O)NCC(N)=O)NC(=O)[C@H](CCCNC(=N)N)NC(=O)[C@H](CCCC)N(C)C(=O)[C@H](CCCC)N(C)C(=O)[C@H](Cc1csc3ccccc13)NC(=O)[C@H](CO)NC(=O)[C@H](Cc1c[nH]c3ccccc13)NC(=O)[C@@H]1CCCN1C(=O)[C@H](CC(C)C)NC(=O)[C@H](Cc1cnc[nH]1)NC2=O (stereo partly drawn) [Example 10001] ({CH2CO}-Y[NMeA]N[X1]HLPWS[Bta][NMeNle][NMeNle]R[ξC]G-NH2; thioether N-14),5.00 to 7.00
9,CCCC[C@H]1C(=O)N(C)[C@@H](CCCC)C(=O)N[C@@H](CCCNC(=N)N)C(=O)NC(C(=O)NCC(N)=O)CSCC(=O)N[C@@H](Cc2ccc(O)cc2)C(=O)N(C)[C@@H](C)C(=O)N[C@@H](CC(N)=O)C(=O)N[C@]2(C[C@@H]2C)C(=O)N[C@@H](Cc2cnc[nH]2)C(=O)N[C@@H](CC(C)C)C(=O)N2CCC[C@H]2C(=O)N[C@@H](Cc2c[nH]c3ccccc23)C(=O)N[C@@H](CO)C(=O)N[C@@H](Cc2csc3ccccc23)C(=O)N1C (stereo partly drawn) [Example 10003] ({CH2CO}-Y[NMeA]N[X4]HLPWS[Bta][NMeNle][NMeNle]R[ξC]G-NH2; thioether N-14),5.00 to 7.00
10,CCCC[C@H]1C(=O)N(C)[C@@H](CCCC)C(=O)N[C@@H](CCCNC(=N)N)C(=O)NC(C(=O)NCC(N)=O)CSCC(=O)N[C@@H](Cc2ccc(O)cc2)C(=O)N(C)[C@@H](C)C(=O)N[C@@H](CC(N)=O)C(=O)N[C@]2(C[C@@H]2C)C(=O)N[C@@H](Cc2cnc[nH]2)C(=O)N[C@@H](CC(C)C)C(=O)N2C[C@H](O)C[C@H]2C(=O)N[C@@H](Cc2c[nH]c3ccccc23)C(=O)N[C@@H](CO)C(=O)N[C@@H](Cc2csc3ccccc23)C(=O)N1C (stereo partly drawn) [Example 10004] ({CH2CO}-Y[NMeA]N[X4]HL[Hyp]WS[Bta][NMeNle][NMeNle]R[ξC]G-NH2; thioether N-14),7.00 to 8.00

# From patent US9944678B2, “Immunomodulators” (BRISTOL-MYERS SQUIBB COMPANY, priority 2014, dated 2018)
